Measured values from ChEMBL document CHEMBL3877252, “Fluorescein hydrazones: A series of novel non-intercalative topoisomerase IIα catalytic inhibitors induce G1 arrest and apoptosis in breast and colon cancer cells” (Eur J Med Chem, 2017).
Structures can show the parent of a compound that is named as a salt.

What was measured:
[1] = target: T1, DNA topoisomerase 1 (Homo sapiens) (UniProt P11387); experiment: Inhibition of human topoisomerase-1 assessed as inhibition of relaxation of supercoiled pBR322 plasmid DNA at 20 uM measured after 1 hr by ethidium bromide staining based agarose gel electrophoresis relative to control
T1 sequence (whole entry): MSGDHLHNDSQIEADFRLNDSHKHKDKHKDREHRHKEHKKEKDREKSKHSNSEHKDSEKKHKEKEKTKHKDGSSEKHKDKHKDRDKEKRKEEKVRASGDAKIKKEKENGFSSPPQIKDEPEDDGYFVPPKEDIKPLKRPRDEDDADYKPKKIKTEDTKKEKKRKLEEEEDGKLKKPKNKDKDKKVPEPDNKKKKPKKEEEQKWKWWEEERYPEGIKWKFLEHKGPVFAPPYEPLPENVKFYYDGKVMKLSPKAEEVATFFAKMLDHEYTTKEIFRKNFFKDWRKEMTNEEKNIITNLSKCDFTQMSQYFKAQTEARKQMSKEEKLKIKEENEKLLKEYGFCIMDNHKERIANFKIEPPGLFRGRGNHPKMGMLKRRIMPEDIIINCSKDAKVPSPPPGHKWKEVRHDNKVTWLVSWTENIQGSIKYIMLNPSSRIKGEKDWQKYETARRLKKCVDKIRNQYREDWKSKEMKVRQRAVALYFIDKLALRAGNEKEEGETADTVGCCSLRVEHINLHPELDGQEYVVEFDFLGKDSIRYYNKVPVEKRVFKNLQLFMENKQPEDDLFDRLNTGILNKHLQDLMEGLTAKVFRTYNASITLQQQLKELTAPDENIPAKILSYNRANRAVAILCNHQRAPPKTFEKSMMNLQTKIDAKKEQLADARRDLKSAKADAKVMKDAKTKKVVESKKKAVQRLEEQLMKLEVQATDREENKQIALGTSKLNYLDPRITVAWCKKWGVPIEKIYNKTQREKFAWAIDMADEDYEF

[2] = target: DNA topoisomerase 2-alpha (Homo sapiens) (UniProt P11388); experiment: Inhibition of human topoisomerase-2 alpha assessed as inhibition of relaxation of supercoiled pBR322 plasmid DNA at 20 uM measured after 1 hr by ethidium bromide staining based agarose gel electrophoresis relative to control
Sequence of DNA topoisomerase 2-alpha (Homo sapiens) (P11388 whole entry): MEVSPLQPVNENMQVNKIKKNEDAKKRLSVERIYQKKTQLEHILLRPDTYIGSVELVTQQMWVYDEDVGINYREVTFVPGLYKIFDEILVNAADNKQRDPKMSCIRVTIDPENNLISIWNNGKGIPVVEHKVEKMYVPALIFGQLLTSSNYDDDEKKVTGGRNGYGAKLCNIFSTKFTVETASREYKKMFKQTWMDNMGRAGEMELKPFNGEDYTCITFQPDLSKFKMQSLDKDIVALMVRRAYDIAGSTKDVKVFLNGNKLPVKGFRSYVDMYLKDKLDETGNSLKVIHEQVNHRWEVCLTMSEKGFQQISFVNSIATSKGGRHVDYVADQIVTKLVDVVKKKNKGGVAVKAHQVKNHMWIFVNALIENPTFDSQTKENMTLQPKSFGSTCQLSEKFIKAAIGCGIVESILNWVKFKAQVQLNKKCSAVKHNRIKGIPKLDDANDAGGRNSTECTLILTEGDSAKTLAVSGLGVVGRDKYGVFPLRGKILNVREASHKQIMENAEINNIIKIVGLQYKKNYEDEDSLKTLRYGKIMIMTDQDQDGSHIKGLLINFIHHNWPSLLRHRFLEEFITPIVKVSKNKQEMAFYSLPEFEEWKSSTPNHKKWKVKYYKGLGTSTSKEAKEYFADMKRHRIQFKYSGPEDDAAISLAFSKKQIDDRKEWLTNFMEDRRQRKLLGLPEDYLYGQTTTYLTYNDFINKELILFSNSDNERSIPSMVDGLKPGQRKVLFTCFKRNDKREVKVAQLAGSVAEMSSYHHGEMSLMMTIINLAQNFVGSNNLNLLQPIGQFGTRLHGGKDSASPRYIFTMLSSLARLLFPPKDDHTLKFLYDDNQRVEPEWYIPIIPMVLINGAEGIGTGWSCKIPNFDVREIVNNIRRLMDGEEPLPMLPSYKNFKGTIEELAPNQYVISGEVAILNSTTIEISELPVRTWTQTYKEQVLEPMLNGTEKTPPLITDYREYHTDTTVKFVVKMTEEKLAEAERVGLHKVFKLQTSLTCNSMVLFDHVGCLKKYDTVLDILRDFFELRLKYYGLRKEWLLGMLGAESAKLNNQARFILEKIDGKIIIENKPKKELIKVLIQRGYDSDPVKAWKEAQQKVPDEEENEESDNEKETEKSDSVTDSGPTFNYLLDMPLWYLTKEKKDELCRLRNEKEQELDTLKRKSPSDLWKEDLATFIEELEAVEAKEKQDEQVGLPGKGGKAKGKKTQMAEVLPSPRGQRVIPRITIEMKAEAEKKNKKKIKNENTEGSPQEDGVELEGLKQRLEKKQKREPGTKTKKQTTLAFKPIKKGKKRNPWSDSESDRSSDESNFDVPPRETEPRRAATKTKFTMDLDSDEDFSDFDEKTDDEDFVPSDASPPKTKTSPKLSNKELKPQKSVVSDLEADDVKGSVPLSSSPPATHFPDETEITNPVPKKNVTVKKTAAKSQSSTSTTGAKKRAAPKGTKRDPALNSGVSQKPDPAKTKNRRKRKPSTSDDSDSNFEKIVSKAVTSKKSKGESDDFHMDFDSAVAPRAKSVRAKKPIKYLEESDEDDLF

[3] = target: DNA topoisomerase 2-alpha (Homo sapiens) (UniProt P11388); experiment: Inhibition of human topoisomerase-2 alpha assessed as inhibition of relaxation of supercoiled pBR322 plasmid DNA at 100 uM measured after 1 hr by ethidium bromide staining based agarose gel electrophoresis relative to control
[4] = Antiproliferative activity against human MCF7 cells measured after 72 hrs by CCK8 assay; type: functional, cell-based; settings: MCF7, 72 h
[5] = Antiproliferative activity against human HCT15 cells measured after 72 hrs by CCK8 assay; type: functional, cell-based; settings: HCT-15, 72 h
[6] = Antiproliferative activity against human T47D cells measured after 72 hrs by CCK8 assay; type: functional, cell-based
[7] = Antiproliferative activity against human DU145 cells measured after 72 hrs by CCK8 assay; type: functional, cell-based; settings: DU-145, 72 h
[8] = target: T1, DNA topoisomerase 1 (Homo sapiens); experiment: Inhibition of human topoisomerase-1 assessed as inhibition of relaxation of supercoiled pBR322 plasmid DNA at 100 uM measured after 1 hr by ethidium bromide staining based agarose gel electrophoresis relative to control

SMILES	inhibition [1] [%]	inhibition [2] [%]	inhibition [3] [%]	inhibition [8] [%]	IC50 [4] [µM]	IC50 [5] [µM]	IC50 [6] [µM]	IC50 [7] [µM]
CCOc1ccc2c(c1)Oc1cc(O)ccc1C21c2ccccc2C(=O)N1/N=C/c1ccc(OC)c(O)c1 (centres undefined)	4.2	2.7	37.9	77.8	3.64	0.29	1.61	1.93
CCOc1ccc2c(c1)Oc1cc(OC(=O)c3ccccc3)ccc1C21c2ccccc2C(=O)N1/N=C/c1cccc(OC(=O)c2ccccc2)c1 (centres undefined)	–	–	6.7	0	> 50	28.9	> 50	> 50
CCOc1ccc2c(c1)Oc1cc(OC(=O)c3ccccc3Cl)ccc1C21c2ccccc2C(=O)N1/N=C/c1ccc(Cl)cc1 (centres undefined)	36.4	1.5	83.7	90.5	> 50	28.7	> 50	> 50
CCOc1ccc2c(c1)Oc1cc(O)ccc1C21c2ccccc2C(=O)N1/N=C/c1ccc(Cl)cc1Cl (centres undefined)	–	2.3	80	12.3	23.2	3.17	> 50	> 50
CCOc1ccc2c(c1)Oc1cc(OC(=O)c3ccccc3Cl)ccc1C21c2ccccc2C(=O)N1/N=C/c1ccccc1[N+](=O)[O-] (centres undefined)	0	–	5.4	39.8	> 50	47	7.75	> 50
CCOc1ccc2c(c1)Oc1cc(OC(=O)c3ccccc3OC)ccc1C21c2ccccc2C(=O)N1/N=C/c1ccc(OC(=O)c2ccccc2OC)cc1 (centres undefined)	–	–	11.4	0	> 50	> 50	44.8	> 50
COc1cccc2c1C(=O)c1c(O)c3c(c(O)c1C2=O)C[C@@](O)(C(=O)CO)C[C@@H]3O[C@H]1C[C@H](N)[C@H](O)[C@H](C)O1 [DOXORUBICIN HYDROCHLORIDE]	–	–	–	–	–	0.74	1.5	1.59
CCOc1ccc2c(c1)Oc1cc(O)ccc1C21c2ccccc2C(=O)N1/N=C/c1ccccc1OC (centres undefined)	–	3.3	58.3	28.1	> 50	0.67	> 50	> 50
CCOc1ccc2c(c1)Oc1cc(OC(=O)c3ccccc3[N+](=O)[O-])ccc1C21c2ccccc2C(=O)N1/N=C/c1ccc(Cl)cc1Cl (centres undefined)	77	2.9	83.8	98	> 50	6.25	> 50	6.74
CCOc1ccc2c(c1)Oc1cc(OC(=O)c3ccccc3)ccc1C21c2ccccc2C(=O)N1/N=C/c1ccccc1OC(=O)c1ccccc1 (centres undefined)	55.9	–	21.5	73.2	> 50	8.29	> 50	> 50
CC[C@@]1(O)C(=O)OCc2c1cc1n(c2=O)Cc2cc3ccccc3nc2-1 [CAMPTOTHECIN]	–	–	–	–	4.54	0.35	0.59	0.38
CCOc1ccc2c(c1)Oc1cc(OC(=O)c3ccccc3[N+](=O)[O-])ccc1C21c2ccccc2C(=O)N1/N=C/c1ccc(OC)cc1 (centres undefined)	3.5	–	6	54.6	–	–	–	–
CCOc1ccc2c(c1)Oc1cc(OC(=O)c3ccccc3[N+](=O)[O-])ccc1C21c2ccccc2C(=O)N1/N=C/c1ccccc1OC (centres undefined)	34.4	–	9	79.3	–	–	–	–
CCOc1ccc2c(c1)Oc1cc(O)ccc1C21c2ccccc2C(=O)N1/N=C/c1ccc(OC)cc1 (centres undefined)	–	3.6	65	0.8	–	–	–	–
CCOc1ccc2c(c1)Oc1cc(OC(=O)c3ccccc3)ccc1C21c2ccccc2C(=O)N1/N=C/c1ccc(OC)c(OC(=O)c2ccccc2)c1 (centres undefined)	72	–	2.7	89.4	–	–	–	–

Further lines, with some results ahead:

inhibition [1] [%]	inhibition [2] [%]	inhibition [3] [%]	inhibition [8] [%]	SMILES	IC50 [4] [µM]	IC50 [5] [µM]	IC50 [6] [µM]	IC50 [7] [µM]
–	–	25.7	0	CCOc1ccc2c(c1)Oc1cc(OC(=O)c3ccccc3[N+](=O)[O-])ccc1C21c2ccccc2C(=O)N1/N=C/c1ccccc1OC(=O)c1ccccc1[N+](=O)[O-] (centres undefined)	> 50	> 50	5.45	> 50
13.9	–	4.9	73.1	CCOc1ccc2c(c1)Oc1cc(OC(=O)c3ccccc3OC)ccc1C21c2ccccc2C(=O)N1/N=C/c1ccc(OC)c(OC(=O)c2ccccc2OC)c1 (centres undefined)	> 50	> 50	23.6	> 50
6.8	–	8.1	74	CCOc1ccc2c(c1)Oc1cc(OC(=O)c3ccccc3OC)ccc1C21c2ccccc2C(=O)N1/N=C/c1ccccc1OC (centres undefined)	> 50	1.92	21.4	> 50
–	1.3	81.6	22.7	CCOc1ccc2c(c1)Oc1cc(O)ccc1C21c2ccccc2C(=O)N1/N=C/c1ccc(Cl)cc1 (centres undefined)	9.77	2.19	5.74	2.3
0	3.3	73.8	36.5	CCOc1ccc2c(c1)Oc1cc(O)ccc1C21c2ccccc2C(=O)N1/N=C/c1ccc(O)cc1 (centres undefined)	4.66	0.03	0.78	1.06
30	–	7.8	55.2	CCOc1ccc2c(c1)Oc1cc(OC(=O)c3ccccc3Cl)ccc1C21c2ccccc2C(=O)N1/N=C/c1ccccc1OC (centres undefined)	> 50	> 50	> 50	6.3
–	–	10.3	0	CCOc1ccc2c(c1)Oc1cc(OC(=O)c3ccccc3OC)ccc1C21c2ccccc2C(=O)N1/N=C/c1ccccc1OC(=O)c1ccccc1OC (centres undefined)	> 50	1.56	6.22	> 50
17.3	–	4.8	35.6	CCOc1ccc2c(c1)Oc1cc(OC(=O)c3ccccc3OC)ccc1C21c2ccccc2C(=O)N1/N=C/c1ccc(OC)cc1 (centres undefined)	–	–	–	–
